Measurements: patent publication US8354454B2, “Prodrugs of oxazolidinone CETP inhibitors” (Merck Sharp & Dohme Corp., priority 2008, dated 2013)

Test: physchem
Conditions: buffer, pH 7.68
Experimental: 50 μL aliquots were removed periodically. […] Each aliquot was diluted with MeCN-d3 (150 μL), and a ^1H NMR spectrum was acquired (128 scans at 25° C., with acquisition starting 3 minutes after the aliquot was taken from the reaction).
The methods for determining the half-lives were approximately the same as described above, with variations in procedure depending on such variables as solubility and reaction rates.

- half-life: ~2.5 h
SMILES: COc1cc(F)c(C(C)C)cc1-c1ccc(C(F)(F)F)cc1CN[C@@H](C)[C@H](OC(=O)OC(COP(=O)(O)O)COP(=O)(O)O)c1cc(C(F)(F)F)cc(C(F)(F)F)c1 [Example 47, (8R,9S)-8-[3,5-bis(trifluoromethyl)phenyl]-N-{[4′-fluoro-5′-isopropyl-2′-methoxy-4-(trifluoromethyl)biphenyl-2-yl]methyl}-1,1-dihydroxy-6-oxo-4-[(phosphonooxy)methyl]-2,5,7-trioxa-1λ^5-phosphadecan-9-aminium1-oxide chloride]
